Data set [1] concerns HeLa, human cervical epithelioid carcinoma. Kind of data set: Cytotoxicity assay (MTT), HeLa. The note with it: read-out: Cytotoxicities (IC50), HeLa, 72 h, MTT.
In data set [2] the target is T1, thioredoxin reductase (TrxR) (Homo sapiens, UniProt Q16881).
T1 sequence (Q16881 1-649): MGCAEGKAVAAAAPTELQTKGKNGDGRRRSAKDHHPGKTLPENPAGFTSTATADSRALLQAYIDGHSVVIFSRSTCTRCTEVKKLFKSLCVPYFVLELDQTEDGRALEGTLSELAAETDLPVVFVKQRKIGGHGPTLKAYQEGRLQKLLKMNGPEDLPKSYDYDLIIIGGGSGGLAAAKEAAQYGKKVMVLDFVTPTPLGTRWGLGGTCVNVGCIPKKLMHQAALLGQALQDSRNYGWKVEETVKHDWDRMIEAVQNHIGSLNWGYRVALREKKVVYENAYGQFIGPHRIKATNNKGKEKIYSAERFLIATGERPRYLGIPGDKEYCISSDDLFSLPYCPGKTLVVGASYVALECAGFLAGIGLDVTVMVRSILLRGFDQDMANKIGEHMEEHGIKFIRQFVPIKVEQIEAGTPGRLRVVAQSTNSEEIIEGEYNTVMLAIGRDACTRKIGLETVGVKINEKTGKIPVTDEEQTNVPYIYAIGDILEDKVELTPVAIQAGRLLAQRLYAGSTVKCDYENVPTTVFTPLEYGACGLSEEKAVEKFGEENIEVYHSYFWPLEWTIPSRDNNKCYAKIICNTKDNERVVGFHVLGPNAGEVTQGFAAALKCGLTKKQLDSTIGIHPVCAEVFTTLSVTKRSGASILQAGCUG
The data set can be described thus: Cellular thioredoxin reductase activity of treated HeLa cells. The class given is cell-based. The settings on record: one-hour treatment. As for the experimental part: Cells were seeded at 2×10^5/well in 6-well plates and incubated for 24 hours. The metal thiourea compounds (10^−9 to 10^−4 M) were serially diluted and added to the cells (final DMSO concentrations≦1%). After an one-hour incubation, cells were washed thrice with phosphate buffered saline and 100 μL ice-cold lysis buffer (50 mM phosphate buffer, pH 7.4, 1 mM EDTA, 0.1% Triton-X 100) were added to the cell layer. Cell lysis was carried on ice for 5 minutes and the cell lysates were collected and stored at −80° C. or assayed immediately. Cell lysates (10 μg proteins) were added to a mixture (100 μL) containing 100 mM phosphate, pH 7.4, 1 mM EDTA and 0.2 mM NADPH.

Data set [3] deals with glutathione peroxidase (GPx). Kind of data set: Cellular glutathione peroxidase activity of treated HeLa cells. The note with it: one-hour treatment. It is filed as cell-based, human. As for the experimental part: (§1) Cells were seeded at 2×10^5/well in 6-well plates and incubated for 24 hours. The metal thiourea compounds (10^−9 to 10^−4 M) were serially diluted and added to the cells (final DMSO concentrations≦1%). After an one-hour incubation, cells were washed thrice with phosphate buffered saline and 100 μL ice-cold lysis buffer (50 mM phosphate buffer, pH 7.4, 1 mM EDTA, 0.1% Triton-X 100) were added to the cell layer. Cell lysis was carried on ice for 5 minutes and the cell lysates were collected and stored at −80° C. or assayed immediately.
Cell lysates (10 μg proteins) were added to a mixture containing 100 mM phosphate, pH 7.4, 2 mM GSH, 1 U glutathione reductase, and 0.2 mM NADPH. Reaction was initiated by adding tert-butyl hydroperoxide (300 μM) and the NADPH oxidation was measured as decreases in O.D.340 nm in 10 min. GPx activities (ΔO.D.340 nm/min) were determined by subtracting the spontaneous NADPH oxidation in the absence of tert-butyl hydroperoxide.

Data set [4] deals with T2, Glutathione reductase (GR) (Homo sapiens, UniProt P00390).
T2 construct: endogenous in cells; host or cells: HeLa
T2 sequence (P00390 44-522): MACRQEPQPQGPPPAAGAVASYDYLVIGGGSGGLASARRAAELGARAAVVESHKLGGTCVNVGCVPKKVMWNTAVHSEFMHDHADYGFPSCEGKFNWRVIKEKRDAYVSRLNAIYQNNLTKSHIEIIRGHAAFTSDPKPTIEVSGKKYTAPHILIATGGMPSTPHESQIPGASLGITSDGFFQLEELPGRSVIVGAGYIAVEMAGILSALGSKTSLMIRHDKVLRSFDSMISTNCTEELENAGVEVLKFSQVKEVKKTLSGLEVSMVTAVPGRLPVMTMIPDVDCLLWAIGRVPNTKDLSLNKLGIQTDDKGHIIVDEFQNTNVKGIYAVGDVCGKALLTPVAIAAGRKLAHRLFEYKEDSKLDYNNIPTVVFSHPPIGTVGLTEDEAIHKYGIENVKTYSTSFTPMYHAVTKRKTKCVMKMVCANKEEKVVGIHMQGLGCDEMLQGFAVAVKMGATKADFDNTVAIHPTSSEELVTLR
Kind of data set: Cellular glutathione reductase activity of treated HeLa cells. It is filed as cell-based. The settings on record: one-hour treatment, up to 100 μM. As for the experimental part:
as §1
Cell lysates (10 μg proteins) were added to a mixture containing 100 mM phosphate, pH 7.4, 1 mM EDTA, 1 mM GSSG and 0.2 mM NADPH. Reaction was initiated by adding DTNB (3 mM final) and the increases in O.D.412 nm were measured for 10 min. GR activities were determined by subtracting the increases in O.D.412 nm in the absence of GSSG.

Data set [5] can be described thus: Cytotoxicity assay (MTT), HeLa. The settings on record: human, HeLa cells.
Data set [6] in a line: Cytotoxicity assay (MTT), HepG2. The note with it: human, HepG2 cells.
Data set [7] is described as follows: Cytotoxicity assay (MTT), SUNE1. The settings on record: human, SUNE1 cells.
Data set [8] can be described thus: Cytotoxicity assay (MTT), NCI-H460. The note with it: human, NCI-H460 cells.
Data set [9] has as its system panel of cancer cell lines. The settings on record: Homo sapiens, read-out: half maximal inhibitory concentrations (IC50), panel of cancer cell lines.
Data set [10] concerns HeLa, human cervical epithelioid carcinoma.
Data set [11] deals with HepG2, human hepatocellular carcinoma.
For data set [12], the system named is SUNE1, human nasopharyngeal carcinoma.
In data set [13] the test system is NCI-H460 = human lung carcinoma.
Data set [14] deals with NCI-H460 non-small cell lung cancer cells. It is filed as in vivo, mice. On the procedure: The in vivo experiment was conducted in Pearl Materia Medica Development (Shenzhen) Limited and performed with approval from the Committee on the Use of Live Animals for Teaching and Research. SPF grade four-week-old female BALB/c AnN-nu mice (nude mice, 16-18 g) were purchased. Tumor cells (5×10^6) resuspended in RPMI medium were implanted by subcutaneous injection on the right flank of the mice. When tumors were approximately 50 mm^3 in size, animals were randomly separated into 3 groups to receive treatment of twice-a-week intraperitoneal injection of 10% PET vehicle control (where 10% PET=6% polyethylene glycol 400, 3% ethanol, 1% Tween 80 and 90% PBS), complex 1 (100 mg/kg) or cyclophosphamide (30 mg/kg) for 8 times. After 28 days, the mice were sacrificed and the tumors were isolated and weighted.

Structures are written as SMILES. Where two headings read alike, the source gives them in different places.

Consider 4 molecules from patent US8722897B2, “Metal complexes of thiourea and derivatives as metal delivering anti-cancer and anti-inflammatory agents” (priority 2010, dated 2014).

On to `O=[N+]([O-])[O-].[Ag+]` [AgNO3, reference compound], for which the IC50 in data set [1] is 32.1 ± 1.2 µM.
On to `COc1ccc(N2CCN(c3ccc(OC)cc3)C2=S)cc1` [TU, 1,3-bis(4-methoxyphenyl)imidazolidine-2-thione, reference compound], for which, in data set [2], the “effect on cellular TrxR activity, added up to 100 μM” value is reported as “not affected”. For the same molecule, in data set [3], the “effect on cellular GPx activity, added up to 100 μM” value is recorded as “not affected”. Also, the “effect on cellular GR activity, added up to 100 μM” value in data set [4] is recorded as “not affected”. For the same molecule, the IC50 at 72 h in [5], in data set [6], in data set [7] and in [8] was greater than 100 µM throughout. For the same molecule, the IC50 in data set [9] is greater than 100 µM.
As for `F[P-](F)(F)(F)(F)F.NC(N)=S.NC(N)=S.[Cu+]` [complex 3, [Cu(TU)2]PF6], the “effect on cellular TrxR activity, added up to 100 μM” value in data set [2] is “not affected”. Further, the “effect on cellular GPx activity, added up to 100 μM” value in [3] is on record as “not affected”. Also, in data set [4], the “effect on cellular GR activity, added up to 100 μM” value is listed as “not affected”. Moreover, the IC50 in [10] was 12.7 ± 0.9 µM; in data set [11], 13 ± 0.9 µM; in data set [12] it was 8.5 ± 1 µM; in data set [13], 11.2 ± 0.9 µM.
Take `O=P1(N(CCCl)CCCl)NCCCO1` (stereo not drawn) [cyclophosphamide]: the “Tumor volume, Day 13” value in data set [14] (Day 13, 30 mg/kg i.p. twice a week) came to 325.041 ± 170.053 mm^3. Moreover, the “Tumor volume, Day 17” value in data set [14] (Day 17, 30 mg/kg i.p. twice a week) is on record as 639.465 ± 422.362 mm^3. Also, the “Tumor volume, Day 21” value in [14] (Day 21, 30 mg/kg i.p. twice a week) is 1032.258 ± 594.026 mm^3. Also, in data set [14] (Day 25, 30 mg/kg i.p. twice a week), the “Tumor volume, Day 25” value is on record as 1474.100 ± 900.357 mm^3. Also, in data set [14] (Day 29, 30 mg/kg i.p. twice a week), the “Tumor volume, Day 29” value amounted to 1438.735 ± 845.815 mm^3.
